The structures appear in SMILES notation.

The EC50 is the concentration at which the effect is half-maximal. High values mean lower potency in that assay, low ones higher potency in that assay.

In this test the target is T1, K2P2.1 (TREK-1, KCNK2) (Homo sapiens, UniProt O95069).
T1 sequence (O95069 1-426): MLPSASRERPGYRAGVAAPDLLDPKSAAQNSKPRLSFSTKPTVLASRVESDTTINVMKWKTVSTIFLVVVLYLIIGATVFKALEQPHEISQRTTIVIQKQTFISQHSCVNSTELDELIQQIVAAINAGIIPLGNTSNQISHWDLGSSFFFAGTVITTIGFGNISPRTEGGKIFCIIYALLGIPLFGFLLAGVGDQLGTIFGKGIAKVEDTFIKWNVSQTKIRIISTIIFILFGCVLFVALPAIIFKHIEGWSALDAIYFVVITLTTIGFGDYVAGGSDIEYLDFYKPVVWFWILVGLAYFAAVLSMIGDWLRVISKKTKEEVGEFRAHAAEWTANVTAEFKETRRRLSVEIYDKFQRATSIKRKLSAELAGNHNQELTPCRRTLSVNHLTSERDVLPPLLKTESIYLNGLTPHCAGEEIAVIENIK
Kind of test: two-electrode voltage clamp, Xenopus oocytes. In kind it is cell-based.
The compound `Cc1ccc(C(C)C)cc1O` [carvacrol, 2-methyl-5-(propan-2-yl) phenol] came in with an EC50 of 200 ± 60 µM.
`Cc1ccc(C(C)C)c(O)c1` [thymol]: the EC50 was 430 ± 240 µM.
`CC(C)[C@@H]1CC[C@@H](C)C[C@H]1O` [menthol] registered an EC50 of 3800 ± 1000 µM.

For the origin of these results see paper doi:10.1101/2020.01.14.906396v1 (biorxiv, 2020).
